Data on six molecules can be found in patent US11291840B2, “Neuronal stimulation model, device and methods using alternate current” (priority 2017, dated 2022).

The test has as its system dissociated rat cortical neurons. In words: Axon 3D growth after local delivery of soluble factors in silk scaffold/collagen gel 3D brain tissue model (β III-tubulin staining, 3D neurite tracing). The test is classed as cell-based. The settings on record: for Axon length: 3D culture, mean±SEM; for axon abundance in center core of 3D cultures (β III-tubulin 2D projections): ECM components compared to neurotrophic factors, ranking among neurotrophic factors; for axons longer compared to BDNF / axons longer compared to the control: axon lengths at DIV 7, 4 days exposure; for axons longer compared to BDNF: vs BDNF; for axons longer compared to the control: vs control culture. The text has this: In one aspect of the present disclosure, control of axon growth and alignment in a CNS environment is critical for nervous system development and regenerative growth. The present disclosure explores the effects of exogenous stimulus of electrical signals and soluble factors on axon 3D growth, using a silk protein material-based 3D brain tissue model. A pair of gold wires were threaded into the 3D tissue model, positioned at the interface of the scaffold region and the center gel region, spanning the axon growth area. This setup delivered applied electrical field directly to growing axons, and the effects were compared to local delivery of soluble factors including extracellular (ECM) components and neurotrophic factors. In one embodiment, dissociated rat cortical neurons were exposed to an alternating field of 80 mV/mm at 0.5 Hz to 2 kHz or soluble factors for up to 4 days, starting on day 3 in vitro (DIV 3), and evaluated by of β III-tubulin immunostaining, confocal imaging and 3D neurite tracing. […] In one embodiment, though axon lengths under 2 Hz stimulation and LN or FN exposure were statistically similar, significant AC-induced axon orientation was found under all frequencies tested. In one embodiment, the effects include perpendicular orientation of axons trespassing an electrode and aligned axon tracts in parallel to the field direction. In one embodiment, the electrode in AC field acts as an alternating cathode that attracts the growing tip of the axon, and AC field between pair electrodes orient axon tract formation in parallel to the field direction. Provided in this disclosure is the use of alternating electric field stimulation to direct axon 3D length growth and orientation. In one aspect, the present disclosure provides stimulation parameters, in conjunction of delivery of growth promoting soluble factors in a brain mimetic 3D environment. In one aspect, the present disclosure teaches the fundamental effects of electrical fields on nervous system development and for testing neuromodulation approaches to promote neural regeneration.
The 3D brain tissue is composed of silk protein material-based scaffold and infused extracellular matrix (ECM) gel, such as collagen type I gel used in this study, as described previously (Tang-Schomer, 2014, 2015). The center region of the donut-shaped scaffold is filled with ECM gel only, for axon outgrowth; whereas the cell bodies are confined to the scaffold region. […]
Axon growth in the 3D brain tissue model was compared after local delivery of soluble factors, including extracellular matrix components such as laminin (LN) and fibronectin (FN) and brain-derived neurotrophic factor (BDNF), glial-derived neurotrophic factor (GDNF), neurotrophin-3 (NT3), and nerve growth factor (NGF) (FIGS. 13A-M). FIGS. 13A-J show representative 2D projections of β III-tubulin stained axons in the center core of 3D cultures.
The rat brain tissue dissociation protocol was approved by Tufts University Institutional Animal Care and Use Committee and complies with the NIH Guide for the Care and Use of Laboratory Animals (IACUC #B2011-45). Cortices from embryonic day 18 (E18) Sprague Dawley rats (Charles River, Wilmington, Mass., USA) were isolated, dissociated with trypsin (0.3%, Sigma) and DNase (0.2%, Roche Applied Science, Indianapolis, Ind., USA) followed with trypsin inhibition with soybean proteins (1 mg/mL, Sigma), centrifuged, and plated at 200,000-625,000 cells/cm^2 in NeuroBasal media (Invitrogen, Carlsbad, Calif., USA) supplemented with B-27 neural supplement, penicillin/streptomycin (100 U/mL and 100 μg/mL), and GlutaMax (2 mM) (Invitrogen). Cultures were maintained in 37° C., 100% humidity and 5% CO2 in an incubator (Forma Scientific, Marietta, Ohio, USA) for up to 16 days in vitro (DIV 1-16). Cultures of DIV 14-16 were used for stimulation.
Silk solution and porous scaffolds were prepared from Bombyx mori cocoons as described previously (Tang-Schomer et al., 2014). […]

Setting [1] is: 48 hr exposure after local delivery of soluble factor.
Setting [2] is: 4 ds exposure of soluble factor (DIV 7), in µm.

As for nerve growth factor [NGF], the Axon length is, setting by setting: under setting [1], 706.5±33.4 μm; under setting [2], 1045.6±61.9.
Regarding laminin [LN], the “axon abundance in center core of 3D cultures (β III-tubulin 2D projections)” value is “more abundant axons”, the “axons longer compared to BDNF” value is given as roughly 18% and the “axons longer compared to the control” value is on record as roughly 33%. Further, the Axon length under setting [1] came out at 1237.7±51.3 μm. In addition, the Axon length under setting [2] was 1332.5±71.0.
The like results for fibronectin [FN] were, in that order, “more abundant axons”, roughly 25%, roughly 41%, 1220.7±57.5 μm and 1411.8±45.1.

B1: brain-derived neurotrophic factor (protein, UniProt P23560 19-247, looked up)
Neurotrophic factor BDNF …: APMKEANIRGQGGLAYPGVRTHGTLESVNGPKAGSRGLTSLADTFEHVIEELLDEDQKVRPNEENNKDADLYTSRVMLSSQVPLEPPLLFLLEEYKNYLDAANMSMRVRRHSDPARRGELSVCDSISEWVTAADKKTAVDMSGGTVTVLEKVPVSKGQLKQYFYETKCNPMGYTKEGCRGIDKRHWNSQCRTTQSYVRALTMDSKKRIGWRFIRIDTSCVCTLTIKRGR
notes: neurotrophic factor delivered locally as soluble factor
For B1, the “axon abundance in center core of 3D cultures (β III-tubulin 2D projections)” value is “most abundant axons” and the “axons longer compared to the control” value is recorded as roughly 13%. The molecule also registered an Axon length under setting [1] of 946.8±35.2 μm. The same molecule showed an Axon length under setting [2] of 1131.1±52.0.

B2: neurotrophin-3 (protein, UniProt P20783 139-257, looked up)
Neurotrophin-3: YAEHKSHRGEYSVCDSESLWVTDKSSAIDIRGHQVTVLGEIKTGNSPVKQYFYETRCKEARPVKNGCRGIDDKHWNSQCKTSQTYVRALTSENNKLVGWRWIRIDTSCVCALSRKIGRT
notes: as for B1
Turning to B2, under “48 hr exposure”, the “axon appearance after 48 hr exposure” value is “robust growth”. Moreover, the Axon length is listed as 728.2±42.5 μm under setting [1] and 784.3±71.6 under setting [2]. Moreover, the “axon appearance after 4 days” value (4 days after local delivery) was “signs of axon degeneration”.

B3: glial-derived neurotrophic factor (protein, UniProt P39905 78-211, looked up)
Glial cell line-derived …: SPDKQMAVLPRRERNRQAAAANPENSRGKGRRGQRGKNRGCVLTAIHLNVTDLGLGYETKEELIFRYCSGSCDAAETTYDKILKNLSRNRRLVSDKVGQACCRPIAFDDDLSFLDDNLVYHILRKHSAKRCGCI
notes: as for B1
With B3, the Axon length turned out to be 802.5±38.0 μm under setting [1] and 1068.3±43.9 under setting [2].
